We go through 44 compounds from patent US7390812B2, “N, N'-disubstituted piperazine compounds and their use as analgesics” (Gruenenthal GmbH, priority 2001, dated 2008).

pKd: −log10 of the molar value.

Test [1] relates to binding site 2 of the sodium channel. As to the kind of experiment: Binding investigations at sodium channel binding site 2 (BTX binding). As to conditions: rat cerebrocortex synaptosomes; for BTX binding at 10 μM [%] inhibition: [3H]-Batrachotoxinin A20 α-benzoate 10 nM, 37° C., 120 min. The protocol:
Binding Investigations at Sodium Channel Binding Site 2
Binding site 2 of the sodium channel is the so-called batrachotoxin (BTX) binding site. [^3H]-Batrachotoxinin A20 α-benzoate (10 nM in the batch) was used as ligand. These ion channel particles (synaptosomes) were enriched from rat cerebrocortex after Gray and Whittaker (E. G. Gray and V. P. Whittaker (1962) J. Anat. 76, 79-88). The radioactivity measured in the presence of veratridine (0.3 mM in the batch) is defined as non-specific binding.
The assay conditions were as published by Pauwels, Leysen and Laduron (P. J. Pauwels, J. E. Leysen and P. M. Laduron (1986) Eur. J. Pharmacol. 124, 291-298). Incubation at 37° C. for 120 min.

The next test concerns the target T1, NA transporter (Rattus norvegicus, UniProt Q63380).
T1 construct: synaptosomes were freshly isolated from rat brain regions; from tissue; host or cells: rat hypothalamus synaptosomes (P2 fraction)
As to the kind of experiment: Noradrenaline reuptake inhibition (NA uptake inhibition) in synaptosomes. The class given is biochemical. As to conditions: synaptosomes from hypothalamus of male rat brains. The protocol:
In order to be able to carry out these in vitro studies, synaptosomes were freshly isolated from rat brain regions. A so-called “P2” fraction was used, which was prepared according to the instructions given by Gray and Whittaker (E. G. Gray and V. P. Whittaker (1962) J. Anat. 76, 79-88).

T1 sequence (Q63380 1-617): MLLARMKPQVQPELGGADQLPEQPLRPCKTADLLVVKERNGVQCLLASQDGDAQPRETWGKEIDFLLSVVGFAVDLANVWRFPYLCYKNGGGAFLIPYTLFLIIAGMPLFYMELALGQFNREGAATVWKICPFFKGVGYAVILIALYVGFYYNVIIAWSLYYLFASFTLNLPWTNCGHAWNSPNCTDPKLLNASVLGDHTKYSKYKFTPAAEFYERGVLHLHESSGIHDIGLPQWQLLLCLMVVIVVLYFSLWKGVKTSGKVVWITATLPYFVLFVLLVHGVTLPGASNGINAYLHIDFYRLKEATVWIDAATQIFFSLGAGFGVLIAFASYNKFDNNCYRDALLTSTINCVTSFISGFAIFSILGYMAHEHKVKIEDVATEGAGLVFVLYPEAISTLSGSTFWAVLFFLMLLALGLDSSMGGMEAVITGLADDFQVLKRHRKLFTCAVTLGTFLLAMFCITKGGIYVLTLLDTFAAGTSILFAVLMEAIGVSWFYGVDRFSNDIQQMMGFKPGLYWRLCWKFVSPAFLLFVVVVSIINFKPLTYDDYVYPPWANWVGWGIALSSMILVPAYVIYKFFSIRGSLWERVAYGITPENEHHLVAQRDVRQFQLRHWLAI

For the compound `CN1CCN(CC2CCCCC2(O)c2ccc(Cl)cc2Cl)CC1` (centres unmarked) [1-(2,4-Dichloro-phenyl)-2-(4-methyl-piperazin-1-ylmethyl)-cyclohexanol], the “BTX binding at 10 μM [%] inhibition” value in test [1] is recorded as 55%. As to `CN1CCN(CC2CCCCC2(O)c2ccc(F)cc2)CC1` (centres unmarked) [1-(4-Fluoro-phenyl)-2-(4-methyl-piperazin-1-ylmethyl)-cyclohexanol], 10 µM produced 51% inhibition on NA transporter.

For the compound `COc1ccc(C2(O)CCCCCCC2CN2CCN(C)CC2)cc1` (centres unmarked) [1-(4-Methoxy-phenyl)-2-(4-methyl-piperazin-1-ylmethyl)-cyclooctanol], the “BTX binding at 10 μM [%] inhibition” value in test [1] is on record as 42%.

Turning to `CN1CCN(CC2CCCCCC2(O)c2ccc(C(C)(C)C)cc2)CC1` (centres unmarked) [1-(4-tert-Butyl-phenyl)-2-(4-methyl-piperazin-1-ylmethyl)-cycloheptanol], the “BTX binding at 10 μM [%] inhibition” value in test [1] amounted to 80%. On the same count and under the same terms, in the case of `CN1CCN(CC2CCCCCCC2(O)c2ccc(C(C)(C)C)cc2)CC1` (centres unmarked) [1-(4-tert-Butyl-phenyl)-2-(4-methyl-piperazin-1-ylmethyl)-cyclooctanol] it was 64%; in that of `CN1CCN(CC2CCCCCC2(O)Cc2ccccc2)CC1` (centres unmarked) [1-Benzyl-2-(4-methyl-piperazin-1-ylmethyl)-cycloheptanol], 86%; in that of `CN1CCN(CC2CCCCC2(O)Cc2ccccc2)CC1` (centres unmarked) [1-Benzyl-2-(4-methyl-piperazin-1-ylmethyl)-cyclohexanol], 71%. Consider `CN1CCN(CC2CCCCCCC2(O)Cc2ccccc2)CC1` (centres unmarked) [1-Benzyl-2-(4-methyl-piperazin-1-ylmethyl)-cyclooctanol], for which, in test [1], the “BTX binding at 10 μM [%] inhibition” value was 75%. For the compound `CN1CCN(CC2CCCCCC2(O)C2CCCC2)CC1` (centres unmarked) [1-Cyclopentyl-2-(4-methyl-piperazin-1-ylmethyl)-cycloheptanol], the “BTX binding at 10 μM [%] inhibition” value in test [1] turned out to be 55%.

`CN1CCN(CC2CCCCC2(O)C2CCCC2)CC1` (centres unmarked) [1-Cyclopentyl-2-(4-methyl-piperazin-1-ylmethyl)-cyclohexanol]: in test [1], the “BTX binding at 10 μM [%] inhibition” value amounted to 49%. Same read-out and setting: then `CN1CCN(CC2CCCCCCC2(O)C2CCCC2)CC1` (centres unmarked) [1-Cyclopentyl-2-(4-methyl-piperazin-1-ylmethyl)-cyclooctanol], with 48%. `CCC(O)(Cc1cccc(C)c1)C(C)CN1CCN(c2cccc(Cl)c2)CC1` (centres unmarked) [1-[4-(3-Chloro-phenyl)-piperazin-1-yl]-2-methyl-3-(3-methyl-benzyl)-pentan-3-ol] gave an inhibition at 10 µM against NA transporter of 55%.

In the case of `CCC(O)(c1cccc(C(F)(F)F)c1)C(C)CN1CCN(c2cccc(Cl)c2)CC1` (centres unmarked) [1-[4-(3-Chloro-phenyl)-piperazin-1-yl]-2-methyl-3-(3-trifluoromethyl-phenyl)-pentan-3-ol], on NA transporter, the inhibition at 10 µM was determined as 65%.

At NA transporter, `CCC(O)(c1cccc(C)c1)C(C)CN1CCN(c2cccc(Cl)c2)CC1` (centres unmarked) [1-[4-(3-Chloro-phenyl)-piperazin-1-yl]-2-methyl-3-m-tolyl-pentan-3-ol] gave an inhibition at 10 µM of 42%.

For the compound `CCC(O)(c1ccc(C)cc1)C(C)CN1CCN(c2cccc(Cl)c2)CC1` (centres unmarked) [1-[4-(3-Chloro-phenyl)-piperazin-1-yl]-2-methyl-3-p-tolyl-pentan-3-ol], testing at 10 µM against NA transporter gave an inhibition of 41%.

As for `CCC(O)(c1ccccc1)C(C)CN1CCN(c2cccc(Cl)c2)CC1` (centres unmarked) [1-[4-(3-Chloro-phenyl)-piperazin-1-yl]-2-methyl-3-phenyl-pentan-3-ol], 10 µM produced 61% inhibition at NA transporter. On NA transporter, `CCC(O)(c1cccs1)C(C)CN1CCN(c2cccc(Cl)c2)CC1` (centres unmarked) [1-[4-(3-Chloro-phenyl)-piperazin-1-yl]-2-methyl-3-thiophen-2-yl-pentan-3-ol] had an inhibition at 10 µM of 45%. Still for that read-out and setting: in the case of `CCC(O)(Cc1cccc(F)c1)C(C)CN1CCN(c2cccc(Cl)c2)CC1` (centres unmarked) [1-[4-(3-Chloro-phenyl)-piperazin-1-yl]-3-(3-fluoro-benzyl)-2-methyl-pentan-3-ol] it was 50%; in that of `CCC(O)(c1cccc(F)c1)C(C)CN1CCN(c2cccc(Cl)c2)CC1` (centres unmarked) [1-[4-(3-Chloro-phenyl)-piperazin-1-yl]-3-(3-fluoro-phenyl)-2-methyl-pentan-3-ol], 53%; in that of `CCC(O)(c1ccc(F)c(C)c1)C(C)CN1CCN(c2cccc(Cl)c2)CC1` (centres unmarked) [1-[4-(3-Chloro-phenyl)-piperazin-1-yl]-3-(4-fluoro-3-methyl-phenyl)-2-methyl-pentan-3-ol], 39%. Still for that read-out and setting: in the case of `CCC(O)(c1ccc(F)cc1)C(C)CN1CCN(c2cccc(Cl)c2)CC1` (centres unmarked) [1-[4-(3-Chloro-phenyl)-piperazin-1-yl]-3-(4-fluoro-phenyl)-2-methyl-pentan-3-ol] it was 53%; in that of `CCC(O)(c1ccc(OC)cc1)C(C)CN1CCN(c2cccc(Cl)c2)CC1` (centres unmarked) [1-[4-(3-Chloro-phenyl)-piperazin-1-yl]-3-(4-methoxy-phenyl)-2-methyl-pentan-3-ol], 45%; in that of `CCC(O)(C(C)CN1CCN(c2cccc(Cl)c2)CC1)C1CCCCC1` (centres unmarked) [1-[4-(3-Chloro-phenyl)-piperazin-1-yl]-3-cyclohexyl-2-methyl-pentan-3-ol], 73%.

Take `CCC(O)(CCc1ccccc1)C(C)CN1CCN(c2cccc(Cl)c2)CC1` (centres unmarked) [1-[4-(3-Chloro-phenyl)-piperazin-1-yl]-3-ethyl-2-methyl-5-phenyl-pentan-3-ol]: the inhibition at 10 µM against NA transporter turned out to be 52%. Still for that read-out and setting: in the case of `CCC(O)(CCCc1ccccc1)C(C)CN1CCN(c2cccc(Cl)c2)CC1` (centres unmarked) [1-[4-(3-Chloro-phenyl)-piperazin-1-yl]-3-ethyl-2-methyl-6-phenyl-hexan-3-ol] it was 55%.

With `CN1CCN(CC2CCCCC2(O)CCCc2ccccc2)CC1` (centres unmarked) [2-(4-Methyl-piperazin-1-ylmethyl)-1-(3-phenyl-propyl)-cyclohexanol], in test [1], the “BTX binding at 10 μM [%] inhibition” value is listed as 80%. As for `CN1CCN(CC2CCCCCCC2(O)CCCc2ccccc2)CC1` (centres unmarked) [2-(4-Methyl-piperazin-1-ylmethyl)-1-(3-phenyl-propyl)-cyclooctanol], the “BTX binding at 10 μM [%] inhibition” value in test [1] was determined as 87%. Still for that read-out and setting: then `Cc1cccc(C2(O)CCCCCC2CN2CCN(C)CC2)c1` (centres unmarked) [2-(4-Methyl-piperazin-1-ylmethyl)-1-m-tolyl-cycloheptanol], with 44%; and `Cc1ccccc1C1(O)CCCCC1CN1CCN(C)CC1` (centres unmarked) [2-(4-Methyl-piperazin-1-ylmethyl)-1-o-tolyl-cyclohexanol], with 50%; and `CN1CCN(CC2CCCCCCC2(O)c2cccs2)CC1` (centres unmarked) [2-(4-Methyl-piperazin-1-ylmethyl)-1-thiophen-2-yl-cyclooctanol], with 64%. For the compound `CN1CCN(CC2CCCCC2(O)C2CCCCC2)CC1` (centres unmarked) [2-(4-Methyl-piperazin-1-ylmethyl)-bicyclohexyl-1-ol], the “BTX binding at 10 μM [%] inhibition” value in test [1] amounted to 63%. On to `CCC(O)(c1ccccc1C)C(C)CN1CCN(C)CC1` (centres unmarked) [2-Methyl-1-(4-methyl-piperazin-1-yl)-3-o-tolyl-pentan-3-ol], for which the “BTX binding at 10 μM [%] inhibition” value in test [1] was found to be 43%. Same read-out and setting: then `CCC(O)(c1ccc(C)cc1)C(C)CN1CCN(C)CC1` (centres unmarked) [2-Methyl-1-(4-methyl-piperazin-1-yl)-3-p-tolyl-pentan-3-ol], with 48%. Regarding `CCC(O)(c1ccccc1)C(C)CN1CCN(C)CC1` (centres unmarked) [2-Methyl-1-(4-methyl-piperazin-1-yl)-3-phenyl-pentan-3-ol], the “BTX binding at 10 μM [%] inhibition” value in test [1] is given as 58%. As to `CCC(O)(c1cccs1)C(C)CN1CCN(C)CC1` (centres unmarked) [2-Methyl-1-(4-methyl-piperazin-1-yl)-3-thiophen-2-yl-pentan-3-ol], the “BTX binding at 10 μM [%] inhibition” value in test [1] was 47%. In turn, `CCC(O)(c1cccc(Cl)c1)C(C)CN1CCN(c2cccc(Cl)c2)CC1` (centres unmarked) [3-(3-Chloro-phenyl)-1-[4-(3-chloro-phenyl)-piperazin-1-yl]-2-methyl-pentan-3-ol] showed an inhibition at 10 µM against NA transporter of 53%. For `CCC(O)(c1ccc(Cl)cc1)C(C)CN1CCN(C)CC1` (centres unmarked) [3-(4-Chloro-phenyl)-2-methyl-1-(4-methyl-piperazin-1-yl)-pentan-3-ol], in test [1], the “BTX binding at 10 μM [%] inhibition” value is on record as 59%. With `CCC(O)(c1ccc(F)c(C)c1)C(C)CN1CCN(C)CC1` (centres unmarked) [3-(4-Fluoro-3-methyl-phenyl)-2-methyl-1-(4-methyl-piperazin-1-yl)-pentan-3-ol], in test [1], the “BTX binding at 10 μM [%] inhibition” value turned out to be 56%. Same read-out and setting: then `CCC(O)(c1ccc(C(C)(C)C)cc1)C(C)CN1CCN(C)CC1` (centres unmarked) [3-(4-tert-Butyl-phenyl)-2-methyl-1-(4-methyl-piperazin-1-yl)-pentan-3-ol], with 68%. In the case of `CCC(O)(Cc1ccccc1)C(C)CN1CCN(C)CC1` (centres unmarked) [3-Benzyl-2-methyl-1-(4-methyl-piperazin-1-yl)-pentan-3-ol], in test [1], the “BTX binding at 10 μM [%] inhibition” value came to 42%.

As for `CCC(O)(C(C)CN1CCN(C)CC1)C1CCCCC1` (centres unmarked) [3-Cyclohexyl-2-methyl-1-(4-methyl-piperazin-1-yl)-pentan-3-ol], the “BTX binding at 10 μM [%] inhibition” value in test [1] worked out at 59%. Same read-out and setting: then `CCC(O)(CCCc1ccccc1)C(C)CN1CCN(C)CC1` (centres unmarked) [3-Ethyl-2-methyl-1-(4-methyl-piperazin-1-yl)-6-phenyl-hexan-3-ol], with 74%; and `C=CC(O)(CC)C(C)CN1CCN(C)CC1` (centres unmarked) [3-Ethyl-4-methyl-5-(4-methyl-piperazin-1-yl)-pent-1-en-3-ol], with 67%. Turning to “[^3H]-Batrachotoxinin A20 α-benzoate [reference compound]”, the pKd in test [1] (radioligand, read-out: KD value for this binding site) was 7.61.

Usually inhibition stands for the share of the control response that was lost under treatment. Low values mean little suppression, high ones strong suppression. Usually pKd stands for the negative decadic logarithm of the Kd, by convention in mol/L.
